According to patent USRE42890E1, “Furazanobenzimidazoles” (Basilea Pharmaceutica AG, priority 2003, dated 2011):

What was measured:
MRC5 = test: MTS proliferation assay, MRC5; format: cell-based; conditions: Homo sapiens; MRC5, 72 h incubation; read-out: MTS proliferation assay IC 50 MRC5
Procedure, shortened: (§1)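 Seed cells in complete RPMI-1640 medium and allow 24 h attachment. Add compounds to final 10 μM, 3 μM, 1 μM or 0.3 μM and incubate 72 h at 37° C. Add MTS, incubate 3 h more, then measure absorption at 492 nm.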

Jurkat = test: MTS proliferation assay, Jurkat; format: cell-based, human; conditions: Homo sapiens, 72 h incubation, read-out: MTS proliferation assay IC 50 Jurkat
Procedure, shortened: (§2)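 Human lines, EGFP-transfected or not, grow in RPMI-1640 plus 5% or 10% FCS and 2-mercaptoethanol. They receive test compound for 72 h at final concentrations of 10, 3, 1 and 0.3 μM, and MTS conversion is measured at 492 nm.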

HT1080 = test: MTS proliferation assay, HT1080; format: cell-based, human; conditions: Homo sapiens, HT-1080; HT1080, 72 h incubation; read-out: MTS proliferation assay IC 50 HT1080
Procedure, shortened: as §2

[1] = tested on: adherent cells or suspension cells; test: Hoechst 33342 nuclear staining (fraction of apoptotic nuclei); format: cell-based; parameters: key: 0 relating to no activity; 1 relating to weak activity comprising less than 70% of the cells; score 2 relating to strong activity comprising more than 70% of the cells
Jily = test: MTS proliferation assay, Jily; format: cell-based; conditions: 72 h incubation, read-out: MTS proliferation assay IC 50 Jily
Procedure, shortened: as §1

HeLa = test: MTS proliferation assay, HeLa; format: cell-based, human; conditions: Homo sapiens, 72 h incubation, read-out: MTS proliferation assay IC 50 HeLa
Procedure, shortened: as §2

SMILES	IC50 (MRC5) [nM]	IC50 (Jurkat) [nM]	IC50 (HT1080) [nM]	Hoechst 33342 nuclear staining score ([1]; H460, conc 0.01 μm)	Hoechst 33342 nuclear staining score ([1]; H460, conc 0.1 μm)	Hoechst 33342 nuclear staining score ([1]; H460, conc 1 μm)	Hoechst 33342 nuclear staining score ([1]; HeLa, conc 0.01 μm)	Hoechst 33342 nuclear staining score ([1]; HeLa, conc 0.1 μm)	Hoechst 33342 nuclear staining score ([1]; HeLa, conc 1 μm)	Hoechst 33342 nuclear staining score ([1]; Jily, conc 0.01 μm)	Hoechst 33342 nuclear staining score ([1]; Jily, conc 0.1 μm)	Hoechst 33342 nuclear staining score ([1]; Jily, conc 1 μm)	Hoechst 33342 nuclear staining score ([1]; Jurkat, conc 0.01 μm)	Hoechst 33342 nuclear staining score ([1]; Jurkat, conc 0.1 μm)	Hoechst 33342 nuclear staining score ([1]; Jurkat, conc 1 μm)	Hoechst 33342 nuclear staining score ([1]; MRC5, conc 0.01 μm)	Hoechst 33342 nuclear staining score ([1]; MRC5, conc 0.1 μm)	Hoechst 33342 nuclear staining score ([1]; MRC5, conc 1 μm)	Hoechst 33342 nuclear staining score ([1]; PBLs, conc 0.01 μm)	Hoechst 33342 nuclear staining score ([1]; PBLs, conc 0.1 μm)	further results
Nc1nonc1-c1nc2ccccc2n1CC(=O)/C=C/c1ccccc1 [Example 12, E-1-[2-(4-Aminofurazan-3-yl)-benzimidazol-1-yl]-4-phenyl-but-3-en-2-one]	> 1000	100 to 1000	> 1000	0	0	0	0	0	0	0	0	2 (score 2 relating to strong activity comprising more than 70% of the cells)	0	0	2 (score 2 relating to strong activity comprising more than 70% of the cells)	0	0	0	0	0	Hoechst 33342 nuclear staining score ([1]; PBLs, conc 1 μm): 0; IC50 (Jily): 100 to 1000 nM; IC50 (HeLa): > 1000 nM
Nc1ccc(C(=O)Cn2c(-c3nonc3NCCC(=O)O)nc3ccccc32)cc1 [Example 13, 4-[1-(4-Aminophenacyl)-1H-benzimidazol-2-yl]-furazan-3-yl-N-(2-carboxyethyl)-amine]	100 to 1000	100 to 1000	100 to 1000	0	0	2 (score 2 relating to strong activity comprising more than 70% of the cells)	0	0	2 (score 2 relating to strong activity comprising more than 70% of the cells)	0	0	2 (score 2 relating to strong activity comprising more than 70% of the cells)	0	0	2 (score 2 relating to strong activity comprising more than 70% of the cells)	0	0	2 (score 2 relating to strong activity comprising more than 70% of the cells)	0	0	Hoechst 33342 nuclear staining score ([1]; PBLs, conc 1 μm): 0; IC50 (Jily): 100 to 1000 nM; IC50 (HeLa): 100 to 1000 nM
